The subject of one experiment is MOLM-13. Put plainly: Proliferation inhibition, CellTiter-Glo, MOLM-13. The experiment is classed as cell-based, human. The note with it: for IC50: Homo sapiens, MOLM-13 cells. Summed up:
(§1)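 About 10,000 cells per well in RPMI-1640 with 10% FBS. Compounds added 2 h after seeding at eight concentrations in duplicate (0.2% DMSO as 100% proliferation), then incubated ~96 h at 37° C, 5% CO2. ATP measured by CellTiter-Glo luminescence; IC50 from four-parameter logistic fit.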
(Cellular ATP, detected with luciferase, serves as a proxy for viable cell number.)

A further experiment relates to MV-4-11. The experiment is described as follows: Proliferation inhibition, CellTiter-Glo, MV-4-11. The experiment is classed as cell-based, human. The settings on record: for IC50: Homo sapiens. The method in brief:
as §1

In another experiment the test system is K-562. Put plainly: Proliferation inhibition, CellTiter-Glo, K-562. In kind it is cell-based, human. The settings on record: for IC50: Homo sapiens. The method in brief: as §1
In another experiment the target is T1, WT FLT3 (Homo sapiens, UniProt P36888).
T1 construct: purchased Invitrogen PR4666C
T1 sequence (P36888 564-993 limits assumed): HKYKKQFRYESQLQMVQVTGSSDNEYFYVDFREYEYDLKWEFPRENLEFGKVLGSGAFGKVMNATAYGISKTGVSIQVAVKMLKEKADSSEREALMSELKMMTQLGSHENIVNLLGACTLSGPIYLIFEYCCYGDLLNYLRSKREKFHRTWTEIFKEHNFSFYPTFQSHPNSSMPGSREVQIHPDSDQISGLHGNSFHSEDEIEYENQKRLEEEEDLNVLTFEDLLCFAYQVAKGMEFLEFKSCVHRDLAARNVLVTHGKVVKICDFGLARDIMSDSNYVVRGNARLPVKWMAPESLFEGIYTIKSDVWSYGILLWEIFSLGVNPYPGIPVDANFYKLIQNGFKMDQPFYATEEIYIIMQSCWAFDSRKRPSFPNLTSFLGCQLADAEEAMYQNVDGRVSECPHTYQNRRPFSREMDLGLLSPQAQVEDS
The experiment is described as follows: WT FLT3 Lance Ultra TR-FRET kinase assay. The experiment is classed as biochemical. Summed up:
(§2)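 Lance Ultra TR-FRET with 50 nM ULight-JAK-1 (Tyr1023) peptide, Eu-anti-phosphotyrosine (PT66) detection, in HEPES pH 7.5 buffer at 23° C, 30 min enzyme/compound preincubation. WT: 0.5 nM enzyme, 100 μM ATP, 30 min; ITD: 0.0625 nM, 50 μM ATP, 60 min. IC50 by four-parameter fit of 11-point 3× dilutions.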
For orientation: TR-FRET usually uses a lanthanide donor and a delayed reading to cut background.

The target in the next experiment is T2, FLT3-ITD (Homo sapiens, UniProt P36888, DUP595-601).
T2 construct: purchased Signalchem F-12-12CG-10
T2 sequence (P36888 with tags, fused parts or gaps DUP595-601 limits assumed): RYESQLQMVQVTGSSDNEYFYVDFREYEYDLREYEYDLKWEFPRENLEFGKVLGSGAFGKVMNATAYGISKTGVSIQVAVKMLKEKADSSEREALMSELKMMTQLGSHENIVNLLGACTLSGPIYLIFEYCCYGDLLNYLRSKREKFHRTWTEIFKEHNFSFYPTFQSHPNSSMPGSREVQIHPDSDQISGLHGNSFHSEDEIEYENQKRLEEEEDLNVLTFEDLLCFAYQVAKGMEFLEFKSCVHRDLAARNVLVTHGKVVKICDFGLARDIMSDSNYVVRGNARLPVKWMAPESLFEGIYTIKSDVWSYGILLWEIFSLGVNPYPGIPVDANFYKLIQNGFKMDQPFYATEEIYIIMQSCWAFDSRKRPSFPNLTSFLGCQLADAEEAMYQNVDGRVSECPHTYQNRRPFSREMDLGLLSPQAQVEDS
The experiment is described as follows: FLT3-ITD Lance Ultra TR-FRET kinase assay. In kind it is biochemical. Summed up:
as §2

The mark [1] stands for this setting: 96 h, IC50 (4 days), CellTiter-Glo, read-out: MOLM-13 IC50.
Where [2] appears, read: MV4-11, 96 h, MV-4:11 cells, IC50 (4 days), CellTiter-Glo, read-out: MV-4:11 IC50.
[3] abbreviates: K562, 96 h, K-562 cells, IC50 (4 days), CellTiter-Glo, read-out: K-562 IC50.

Like-named read-outs stand apart in the source and are kept apart here.

By IC50 is commonly meant the concentration that inhibits the measured activity by half. For `C=CC(=O)Nc1cc(Nc2nc(N[C@H]3CC[C@@](C)(O)CC3)c(CC)nc2C(N)=O)ccc1C` [Compound C-3, reference compound], the “Ymax in MOLM-13 cells” value with MOLM-13 came out at 0%. Besides, the half-maximal inhibitory concentration (IC50) with MOLM-13 (setting [1]) was over 500 nM; in the experiment with MOLM-13 (read-out: IC50 in MOLM-13 cells), over 100 nM; in the experiment on MV-4-11 (setting [2]), over 500 nM; in the experiment on MV-4-11 (MV4-11 cells, read-out: IC50 in MV4-11 cells), over 100 nM; with K-562 (setting [3]) it was over 500 nM; with K-562 (K562 cells, read-out: IC50 in K562 cells), over 100 nM. The IC50 against WT FLT3 and on FLT3-ITD was over 1 nM throughout. In the experiment with MV-4-11 (MV4-11 cells), the “Ymax in MV4-11 cells” value is given as 6.8%. The “Ymax in K562 cells” value with K-562 (K562 cells) was found to be 0%.
For the compound `Cc1nc(C(N)=O)c(Nc2cccc(CCNC(=O)CN(C)C(=O)/C=C/CN(C)C)c2)nc1C1CC1` [Compound 241, (E)-5-cyclopropyl-3-((3-(2-(2-(4-(dimethylamino)-N-methylbut-2-enamido)acetamido)ethyl)phenyl)amino)-6-methylpyrazine-2-carboxamide], the half-maximal inhibitory concentration (IC50) in the experiment on MOLM-13 (setting [1]) was 1 to 10 nM; with MV-4-11 (setting [2]), 1 to 10 nM; in the experiment with K-562 (setting [3]) it was over 500 nM; at WT FLT3, over 1 nM; against FLT3-ITD it was 0.201 to 0.5 nM.
In the case of `CCc1nc(C(N)=O)c(Nc2cc(F)cc(CCNC(=O)[C@H](C)N(C)C(=O)/C=C/CN(C)C)c2)nc1N(C)C` [Compound 158, (S,E)-5-(dimethylamino)-3-((3-(2-(2-(4-(dimethylamino)-N-methylbut-2-enamido)propanamido)ethyl)-5-fluorophenyl)amino)-6-ethylpyrazine-2-carboxamide], the IC50 in the experiment on MOLM-13 (setting [1]) is under 1 nM; in the experiment on MV-4-11 (setting [2]), under 1 nM; in the experiment on K-562 (setting [3]), over 500 nM; at WT FLT3, 0.101 to 0.2 nM; against FLT3-ITD, 0.101 to 0.2 nM.
`C=CC(=O)N(C)CC(=O)NCCc1cccc(Nc2nc(CC(C)C)c(CC)nc2C(N)=O)c1` [Compound 510, 6-ethyl-5-isobutyl-3-((3-(2-(2-(N-methylacrylamido)acetamido)ethyl)phenyl)amino) pyrazine-2-carboxamide]: the 50% inhibitory concentration (IC50) is 10 to 100 nM in the experiment on MOLM-13 (setting [1]); 10 to 100 nM in the experiment with MV-4-11 (setting [2]); over 500 nM in the experiment with K-562 (setting [3]); over 1 nM at WT FLT3; over 1 nM on FLT3-ITD.
In the case of `CCc1nc(C(N)=O)c(Nc2cccc(CCNC(=O)[C@H](C)N(C)C(=O)/C=C/CN(C)C)c2)nc1N(C)C` [Compound 137, (S,E)-5-(dimethylamino)-3-((3-(2-(2-(4-(dimethylamino)-N-methylbut-2-enamido)propanamido)ethyl)phenyl)amino)-6-ethylpyrazine-2-carboxamide], the 50% inhibitory concentration (IC50) is under 1 nM in the experiment with MOLM-13 (setting [1]); under 1 nM in the experiment with MV-4-11 (setting [2]); over 500 nM with K-562 (setting [3]); 0.501 to 1 nM at WT FLT3; 0.201 to 0.5 nM at FLT3-ITD.

The record behind these values is patent publication US20240262795A1, “PYRAZINE COMPOUNDS AS INHIBITORS OF FLT3” (Biomea Fusion, Inc., priority 2021, published 2024).
